Data from patent US8686155B2, “Aurora kinase modulators and method of use” (Amgen Inc., priority 2006, dated 2014).
Read-outs that look alike come from different tables or passages of the source.

Columns and labels:
[1] = tested on: phosphorylation of Histone H3 in HeLa cells; assay: HeLa cell 1-hour phospho-histone assay; format: cell-based; settings: Homo sapiens, % of cells pHH3 positive, unit inferred, read-out: inhibitory activity (EC50) in the phospho-histone H3 assay
Experimental: HeLa Cell 1-Hour Phospho-Histone Assay
The purpose of this assay is to test the inhibitory effect of Aurora compounds with respect to phosphorylation of Histone H3 in the cellular context. HeLa cells (9×10^4/well) are plated in black 96-well flat-bottom tissue culture plates and incubated for 40 hours prior to compound addition. Compounds are serially diluted in DMSO, followed by dilution into MEM containing 10 mM HEPES; 10 ul/well of diluted compounds are added to cells (0.5% DMSO final). Cells are incubated for 1 hour at 37° C. in 5% CO2. Cells are then fixed with 3.7% formaldehyde for 10 minutes, washed with wash buffer (1% goat serum and 0.1% Tween 20 in PBS), then permeabilized with 0.5% Triton X in PBS for 15 minutes. After washing with wash buffer, cells are incubated with primary antibody (Upstate #06-507 anti-phospho-histone (Ser 10) antibody (pHH3) for 1 hour at 10 ug/ml. After 2 washes with wash buffer, cells are incubated with secondary antibody (Molecular Probes #A11034 goat anti-rabbit Alexa-488 for 1 hour at 1 ug/ml+Hoechst 33342 nuclear dye at 1 ug/ml (Molecular Probes). Cells are washed 2 times with wash buffer, and buffer replaced with PBS. Plates are scanned on the Cellomics Array Scan (6 fields, ˜2000 cells/well) and % of cells that are pHH3 positive were calculated using the Cellomics algorithm.

AuroraA-TPX2 = biological target: T1, AuroraA-TPX2 (Homo sapiens, UniProt O14965); assay: AuroraA-TPX2 Homogeneous Time Resolved Fluorescent (HTRF) kinase assay; format: biochemical
T1 construct: 20 μL of AuroraA-TPX2 KD GST; GST
T1 sequence (O14965 133-383 limits assumed): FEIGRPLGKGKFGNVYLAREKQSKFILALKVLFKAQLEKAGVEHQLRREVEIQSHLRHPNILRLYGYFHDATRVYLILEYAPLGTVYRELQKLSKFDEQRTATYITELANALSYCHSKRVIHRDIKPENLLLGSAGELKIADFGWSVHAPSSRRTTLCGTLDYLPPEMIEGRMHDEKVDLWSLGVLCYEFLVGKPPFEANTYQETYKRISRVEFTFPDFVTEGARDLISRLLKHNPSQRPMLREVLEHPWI
T1 sequence (Q9ULW0 1-43 partner limits assumed): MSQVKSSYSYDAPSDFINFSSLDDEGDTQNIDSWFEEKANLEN
Experimental: AuroraA-TPX2-Homogeneous Time Resolved Fluorescent (HTRF) Kinase Assay
The Aurora-A HTRF assay begins with Aurora-A in the presence of ATP phosphorylating the biotinylated peptide PLK. The reaction incubates for about 120 min. Detection reagents are added to quench the reaction. These agents stop the reaction by diluting out the enzyme and chelating the metals due to the presence of EDTA. After addition, the assay is incubated overnight to allow the detection reagents to equilibrate.
The final concentration of PLK is about 1 μM. […] Buffer conditions are as follows: 60 mM HEPES pH 7.5, 25 mM NaCl, 10 mM MgCl, 2 mM DTT, 0.05% BSA.
(§1) The assay is quenched and stopped with 160 μL of detection reagent. Detection reagents are as follows: Buffer made of 50 mM Tris, pH 7.5, 100 mM NaCl, 3 mM EDTA, 0.05% BSA, 0.1% Tween20. Added to this buffer prior to reading is Steptavidin allophycocyanin (SA-APC) at a final conc in the assay of 0.0005 mg/mL, and europilated anti-phosphoPLK Ab (Eu-anti-PLK) at a final conc of 0.02 nM.
The assay plate is read in either a Discovery or a RubyStar. The eu-anti-PLK is excited at 320 nm and emits at 615 nm to excite the SA-APC which in turn emits at 655 nm.

AuroraB = biological target: T2, AuroraB (Homo sapiens, UniProt Q96GD4); assay: AuroraB Homogeneous Time Resolved Fluorescent (HTRF) kinase assay; format: biochemical
T2 construct: 20 μL of AuroraB FL His; His
Experimental: AuroraB-Homogeneous Time Resolved Fluorescent (HTRF) Kinase Assay:
The AuroraB HTRF assay begins with AuroraB in the presence of ATP phosphorylating the biotinylated peptide Histone H3. The reaction incubates for about 90 min. the reaction is quentched by addition of detection reagents, which stop the reaction by diluting out the enzyme and chelating the metals due to the presence of EDTA. After addition, the assay is incubated for about 60 min to allow detection reagents to equilibrate.
The AuroraB HTRF assay comprises 1 μL of compound in 100% DMSO, 20 μL of ATP and biotinylated Histone H3, and 20 μL of AuroraB FL His for a final volume of 41 μL. The final concentration of Histone H3 is 0.1 μM. The final concentration of ATP is 23 μM (Km(app)=23 μM+/−2.6) and the final concentration of AuroraB is 400 pM. Buffer conditions are as follows: 50 mM HEPES pH 7.5, 5 mM NaCl, 0.5 mM MgCl, 0.5 mM MnCl, 2 mM DTT, 0.05% BSA.
as §1, with “μl,” for “μL”, “0.001” for “0.0005”, “anti-phosphoHistoneH3” for “anti-phosphoPLK”, “(Eu-anti-His H3)” for “(Eu-anti-PLK)”, “0.064” for “0.02”
The assay plate is read in either a Discovery or a RubyStar. The eu-anti-HisH3 is excited at 320 nm and emits at 615 nm to excite the SA-APC which in turn emits at 655 nm. The ratio of SA-APC at 655 nm (excited due to close proximity to the Eu-anti-H HisH3 because of phosphorylation of the peptide) to free Eu-anti-HisH3 at 615 nm will give substrate phosphorylation.

[2] = ATP about 1 μM, biotinylated peptide PLK, read-out: average activity in the Aurora kinase A HTRF assay
[3] = ATP 23 μM, biotinylated peptide Histone H3, read-out: average activity in the Aurora kinase B HTRF assay
[4] = class symbols, read-out: AurA/TPX2_IC50_IP (Avg)
[5] = class symbols, read-out: AurB_IC50_IP (Avg)
[6] = numeric values, unit inferred, read-out: AurA/TPX2_IC50_IP (Avg)
[7] = numeric values, unit inferred, read-out: AurB_IC50_IP (Avg)

T2 sequence (Q96GD4 whole entry): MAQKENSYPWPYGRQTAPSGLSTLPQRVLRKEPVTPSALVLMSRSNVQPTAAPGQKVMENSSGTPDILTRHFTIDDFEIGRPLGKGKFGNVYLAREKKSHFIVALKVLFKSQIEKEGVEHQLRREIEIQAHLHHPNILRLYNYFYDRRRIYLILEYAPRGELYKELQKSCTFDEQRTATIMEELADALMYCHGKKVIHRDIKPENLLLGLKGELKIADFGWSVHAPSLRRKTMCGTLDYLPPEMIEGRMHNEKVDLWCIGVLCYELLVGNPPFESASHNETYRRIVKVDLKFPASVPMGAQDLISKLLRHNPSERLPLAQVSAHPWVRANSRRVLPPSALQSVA

| IC50 (AuroraA-TPX2; [4]) [nM] | IC50 (AuroraB; [5]) [nM] | SMILES | also measured |
| --- | --- | --- | --- |
| ≤ 100 | ≤ 100 | COc1ccccc1-c1nnc(Nc2ccc(Oc3ncccc3-c3ccnc(N)n3)cc2)c2ccccc12 [compound 437] |  |
| ≤ 100 | ≤ 100 | COc1cccc(-c2nnc(Nc3ccc(Oc4ncccc4-c4ccnc(N)n4)cc3)c3ccccc23)c1 [compound 438] |  |
| ≤ 100 | ≤ 100 | CCc1cc(-c2ccccc2)nnc1Nc1ccc(Oc2ncccc2-c2ccnc(N)n2)nc1 [compound 439] |  |
| ≤ 100 | ≤ 100 | COc1ccccc1-c1nnc(Nc2ccc(Oc3ncccc3-c3ccnc(N)n3)nc2)c2ccccc12 [compound 440] |  |
| 100 to 500 | 100 to 500 | COc1cccc(-c2nnc(Nc3ccc(Oc4ncccc4-c4ccnc(N)c4)cc3)c3ccccc23)c1 [compound 441] |  |
| ≤ 100 | ≤ 100 | COc1cccc(-c2cc(C)c(Nc3ccc(Oc4ncccc4-c4ccnc(N)n4)cc3)nn2)c1 [compound 443] |  |
| 100 to 500 | ≤ 100 | CCc1cc(-c2ccccc2)nnc1Nc1ccc(Oc2ncccc2-c2ccnc(N)c2)nc1 [compound 444] |  |
| ≤ 100 | ≤ 100 | COCc1cc(-c2ccccc2)nnc1Nc1ccc(Oc2ncccc2-c2ccnc(N)n2)cc1 [compound 446] |  |

The next lines start with the compound.

| SMILES | IC50 (AuroraA-TPX2; [4]) [nM] | IC50 (AuroraB; [5]) [nM] | also measured |
| --- | --- | --- | --- |
| CNc1nccc(-c2cccnc2Oc2ccc(Nc3nnc(-c4ccccc4)c4c3C3CCC4CC3)cc2)n1 [Example 107, N-(4-((3-(2-(methylamino)-4-pyrimidinyl)-2-pyridinyl)oxy)phenyl)-6-phenyl-4,5-diazatricyclo [6.2.2.0~2,7~]dodeca-2,4,6-trien-3-amine] |  |  | EC50 [1]: < 1000 nM |
| CNc1cc(-c2cnccc2Oc2ccc(Nc3nnc(-c4ccccc4)c4ccccc34)cc2)ccn1 [Example 242, N-(4-(3-(2-(methylamino)pyridin-4-yl)pyridin-4-yloxy)phenyl)-4-phenylphthalazin-1-amine] |  |  | IC50 (AuroraA-TPX2; [2]): ≤ 100 nM; IC50 (AuroraB; [3]): ≤ 100 nM |
| c1ccc(-c2nnc(Nc3ccc(Oc4ncncc4-c4ccncc4)cc3)c3ccccc23)cc1 [Example 243, 4-phenyl-N-(4-(5-(pyridin-4-yl)pyrimidin-4-yloxy)phenyl)phthalazin-1-amine] |  |  | IC50 (AuroraA-TPX2; [2]): ≤ 100 nM; IC50 (AuroraB; [3]): ≤ 100 nM |
| CNc1nccc(-c2cccnc2Oc2ccc(Oc3nnc(-c4ccccc4)c4ccccc34)cc2)n1 [Example 244, N-methyl-4-(2-(4-(4-phenylphthalazin-1-yloxy)phenoxy)pyridin-3-yl)pyrimidin-2-amine] |  |  | IC50 (AuroraA-TPX2; [2]): ≤ 100 nM; IC50 (AuroraB; [3]): ≤ 100 nM |
| CC(C)c1nnc(Nc2ccc(Oc3ncccc3-c3ccnc(N)n3)nc2)c2ccccc12 [compound 269] | 100 to 500 |  |  |
| Cc1cccc(-c2nnc(Nc3ccc(Oc4ncccc4-c4ccnc(N)n4)cc3)c3ccccc23)n1 [compound 271] |  |  | IC50 (AuroraA-TPX2; numeric values, read-out: AurA/TPX2_IC50_IP (Avg)): 24.3 nM; IC50 (AuroraB; numeric values, read-out: AurB_IC50_IP (Avg)): 1 nM |
| COCc1cccc(-c2nnc(Nc3ccc(Oc4ncccc4-c4ccnc(N)n4)cc3)c3ccccc23)n1 [compound 298] | ≤ 100 | ≤ 100 |  |
| Nc1nccc(-c2cccnc2Oc2ccc(Nc3nnc(-c4ccccc4)c4ccccc34)cn2)n1 [compound 415] | ≤ 100 | ≤ 100 |  |
| Cc1csc(-c2nnc(Nc3ccc(Oc4ncccc4-c4ccnc(N)c4)cc3)c3ccccc23)c1 [compound 416] |  |  | IC50 (AuroraA-TPX2; [6]): 54.1 nM; IC50 (AuroraB; [7]): 14.5 nM |
| Cc1cc(-c2ccccc2)nnc1Nc1ccc(Oc2ncccc2-c2ccnc(N)c2)cc1 [compound 418] | ≤ 100 | ≤ 100 |  |
| Cc1csc(-c2cc(C)c(Nc3ccc(Oc4ncccc4-c4ccnc(N)c4)cc3)nn2)c1 [compound 419] | ≤ 100 | ≤ 100 |  |
| CCc1cc(-c2ccccc2)nnc1Nc1ccc(Oc2ncccc2-c2ccnc(N)c2)cc1 [compound 420] |  |  | IC50 (AuroraA-TPX2; [6]): 56.8 nM; IC50 (AuroraB; [7]): 7.1 nM |
| O=C(O)CCCNc1nccc(-c2cccnc2Oc2ccc(Nc3nnc(-c4ccccc4)c4ccccc34)cc2)n1 [compound 427] | ≤ 100 | ≤ 100 |  |
| Cc1csc(-c2cc(C)c(Nc3ccc(Oc4ncccc4-c4ccncc4)cc3)nn2)c1 [compound 428] | ≤ 100 | ≤ 100 |  |
| Cc1cc(-c2ccccc2)nnc1Nc1ccc(Oc2ncccc2-c2ccnc(NCCCO)n2)cc1 [compound 429] | ≤ 100 | ≤ 100 |  |
| Cc1cc(-c2ccccc2)nnc1Nc1ccc(Oc2ncccc2-c2ccnc(NCCCC(=O)O)n2)cc1 [compound 430] | ≤ 100 | ≤ 100 |  |
| Nc1cc(-c2cccnc2Oc2ccc(Nc3nnc(-c4ccccc4)c4ccccc34)cn2)ccn1 [compound 431] | ≤ 100 | ≤ 100 |  |
| O=c1cc(-c2cccnc2Oc2ccc(Nc3nnc(-c4ccccc4)c4ccccc34)cc2)cc[nH]1 [compound 432] |  | 500 to 2500 |  |
| Cc1csc(-c2cc(C)c(Nc3ccc(Oc4ncccc4-c4ccnc(N)c4)cc3)nn2)n1 [compound 434] |  |  | IC50 (AuroraA-TPX2; [6]): 98.6 nM; IC50 (AuroraB; [7]): 9.5 nM |
| CCc1cc(-c2ccccc2)nnc1Nc1ccc(Oc2ncccc2-c2ccnc(N)n2)cc1 [compound 435] | ≤ 100 | ≤ 100 |  |
| N#Cc1cccc(-c2ccncc2)c1Oc1ccc(Nc2nnc(-c3ccccc3)c3ccccc23)cc1 [compound 436] | 100 to 500 | ≤ 100 |  |
| COc1ccccc1-c1nnc(Nc2ccc(Oc3ncccc3-c3ccnc(N)c3)cc2)c2ccccc12 [compound 442] |  |  | IC50 (AuroraA-TPX2; [6]): 375 nM; IC50 (AuroraB; [7]): 33 nM |
| CCCc1cc(-c2ccccc2)nnc1Nc1ccc(Oc2ncccc2-c2ccnc(N)n2)cc1 [compound 445] |  |  | IC50 (AuroraA-TPX2; [6]): 23.5 nM; IC50 (AuroraB; [7]): 3.1 nM |
| Oc1cccc(-c2ccncc2)c1Oc1ccc(Nc2nnc(-c3ccccc3)c3ccccc23)cc1 [compound 447] |  | 500 to 2500 |  |
| COc1cccc(-c2ccncc2)c1Oc1ccc(Nc2nnc(-c3ccccc3)c3ccccc23)cc1 [compound 448] |  |  | IC50 (AuroraA-TPX2; [6]): 110 nM; IC50 (AuroraB; [7]): 9.6 nM |
